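48-hour exposure; five concentrations; linearly interpolated endpoints. TGI is the concentration that stops growth completely.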

Some test systems named below: ACHN renal; CCRF-CEM leukemia; HOP-92 NSCLC; MALME-3M melanoma; NCI-H460 lung; OVCAR-3 ovarian; OVCAR-4 ovarian; SK-MEL-28 melanoma.
Experiment in all cases: inhibition of tumour cell growth, NCI panel, 48 h

For the molecule `O=c1[nH]cc(C(F)(C(F)(F)F)C(F)(F)F)c(=O)[nH]1`, the TGI with ACHN renal, with CCRF-CEM leukemia, in the test with HOP-92 NSCLC, with MALME-3M melanoma, in the test on NCI-H460 lung and with OVCAR-3 ovarian was more than 100 µM throughout. Besides, the TGI with OVCAR-4 ovarian and with SK-MEL-28 melanoma was more than 100 µM each time.
Consider `COc1ccc(C)cc1C1CCC(=O)O1` (stereo not drawn), for which the TGI in the test on ACHN renal, in the test on CCRF-CEM leukemia, with MALME-3M melanoma, in the test with NCI-H460 lung, with OVCAR-3 ovarian and in the test with SK-MEL-28 melanoma was more than 100 µM in each case.
On to `COc1cc(C(C#N)NNc2nc(C)cc(=O)[nH]2)cc(OC)c1OC` (stereo not drawn), for which the TGI in the test on ACHN renal, in the test with CCRF-CEM leukemia, in the test on HOP-92 NSCLC, in the test on MALME-3M melanoma, in the test with NCI-H460 lung and with OVCAR-3 ovarian was more than 100 µM throughout. Besides, the TGI in the test on OVCAR-4 ovarian and in the test on SK-MEL-28 melanoma was more than 100 µM in each case.
For the molecule `CC(C)N1C(C)[C@@H](c2ccccc2)O[P@]1(=O)CC1=CCCCC1` (stereo partly drawn), the TGI is more than 100 µM in the test with ACHN renal; more than 100 µM in the test with CCRF-CEM leukemia; 99.6 µM with HOP-92 NSCLC; more than 100 µM in the test on MALME-3M melanoma; more than 100 µM with NCI-H460 lung; more than 100 µM in the test on OVCAR-3 ovarian. In the test on SK-MEL-28 melanoma, this molecule yielded a TGI of more than 100 µM.
In the case of `C/C(=N\NS(=O)(=O)c1ccc([N+](=O)[O-])cc1)c1ccc[n+]([O-])n1`, the TGI in the test on ACHN renal is more than 21.7 µM; in the test on CCRF-CEM leukemia, more than 30.1 µM; in the test on HOP-92 NSCLC it was 8.3 µM; with MALME-3M melanoma it was 9.45 µM; in the test on NCI-H460 lung, 2.75 µM; with OVCAR-3 ovarian it was 4.95 µM. The TGI in the test on OVCAR-4 ovarian turned out to be 5.69 µM.
Regarding `CCCCCCCCCCCCCCCCCC(=O)NCC(COP(=O)(O)O)OCC` (stereo not drawn), the TGI was more than 100 µM in the test on CCRF-CEM leukemia; 42.4 µM in the test with HOP-92 NSCLC; more than 100 µM in the test with MALME-3M melanoma; more than 100 µM in the test on OVCAR-3 ovarian; more than 100 µM with OVCAR-4 ovarian; more than 100 µM in the test with SK-MEL-28 melanoma.
With `COc1ccc(NC(=O)C2C(=O)N(c3ccc(OC)cc3)C(=O)/C2=N\NC(N)=O)cc1` (stereo not drawn), the TGI with ACHN renal is 82.5 µM; in the test with HOP-92 NSCLC it was 84.9 µM; in the test with MALME-3M melanoma, 68.5 µM; in the test with NCI-H460 lung, more than 100 µM; with OVCAR-3 ovarian, more than 100 µM; in the test on OVCAR-4 ovarian, 94.3 µM. The TGI with SK-MEL-28 melanoma was more than 100 µM.
With `c1ccc(-c2ccnc3c2ccc2c(-c4ccccc4)ccnc23)cc1`, the TGI in the test on ACHN renal came to 9.45 µM; in the test on CCRF-CEM leukemia, 2.84 µM; with MALME-3M melanoma it was 13.5 µM; in the test on NCI-H460 lung, 7.28 µM; with OVCAR-3 ovarian it was 10.1 µM; with OVCAR-4 ovarian, 12.7 µM. In the test with SK-MEL-28 melanoma, the TGI came out at 19.9 µM.
On to `Cc1noc(/N=C2\C=C(Nc3onc(C)c3C)C(=O)c3ccccc32)c1C`, for which the TGI is more than 100 µM with ACHN renal; more than 100 µM in the test with CCRF-CEM leukemia; more than 100 µM with HOP-92 NSCLC; more than 100 µM with MALME-3M melanoma; more than 100 µM with NCI-H460 lung; 83 µM in the test on OVCAR-3 ovarian. In addition, the TGI with OVCAR-4 ovarian and in the test with SK-MEL-28 melanoma was more than 100 µM each time.
`COC(=O)C(C(=O)C(N)=O)c1csc(-n2nc(-c3ccccc3)cc2-c2ccccc2)n1` (stereo not drawn): the TGI in the test with ACHN renal is more than 31.6 µM; with CCRF-CEM leukemia, more than 31.6 µM; in the test on HOP-92 NSCLC it was more than 100 µM; in the test on MALME-3M melanoma, more than 31.6 µM; in the test on NCI-H460 lung it was more than 31.6 µM; in the test with OVCAR-3 ovarian it was more than 100 µM. For the same molecule, the TGI in the test on OVCAR-4 ovarian and with SK-MEL-28 melanoma was more than 31.6 µM throughout.
Regarding `S=c1c2ccccc2c(=S)n2n1CC=CC2`, the TGI with ACHN renal, with CCRF-CEM leukemia, with HOP-92 NSCLC, in the test on MALME-3M melanoma, in the test with OVCAR-3 ovarian and in the test with OVCAR-4 ovarian was more than 100 µM in each case. Also, the TGI with SK-MEL-28 melanoma is more than 100 µM.
As for `c1ccc(-c2nnc3nn4c(-c5ccccc5)cnnc4c3c2-c2ccccc2)cc1`, the TGI in the test on ACHN renal, in the test with CCRF-CEM leukemia, in the test with HOP-92 NSCLC, in the test with MALME-3M melanoma, in the test on NCI-H460 lung and in the test with OVCAR-3 ovarian was more than 100 µM in each case. In addition, the TGI in the test on OVCAR-4 ovarian was 42.5 µM; in the test on SK-MEL-28 melanoma, more than 100 µM.
For the molecule `COc1ccc2c([nH]c3c(O)c(-c4c(C)cc5c([nH]c6c(CC=C(C)C)c(OC)ccc65)c4O)c(C)cc32)c1CC=C(C)C`, the TGI with ACHN renal, in the test with CCRF-CEM leukemia, with HOP-92 NSCLC, in the test on MALME-3M melanoma, in the test with NCI-H460 lung and in the test on OVCAR-3 ovarian was more than 100 µM each time. Also, the TGI with OVCAR-4 ovarian and in the test on SK-MEL-28 melanoma was more than 100 µM throughout.
`C#CCOCn1cnc2ncnc(N)c21`: the TGI with ACHN renal, in the test on CCRF-CEM leukemia, with HOP-92 NSCLC, in the test on MALME-3M melanoma, in the test with NCI-H460 lung and in the test with OVCAR-3 ovarian was more than 100 µM throughout. Moreover, the TGI in the test on OVCAR-4 ovarian and in the test on SK-MEL-28 melanoma was more than 100 µM in each case.
With `Cc1ccc(/C=N/NS(=O)(=O)c2ccccc2)c(C)c1`, the TGI in the test with ACHN renal, in the test on CCRF-CEM leukemia, in the test with HOP-92 NSCLC, in the test with MALME-3M melanoma, in the test with NCI-H460 lung and with OVCAR-3 ovarian was more than 100 µM in each case. The TGI in the test with OVCAR-4 ovarian and with SK-MEL-28 melanoma was more than 100 µM throughout.
In the case of `CC(=O)c1c2c(cc3c1CC1(C3)Cc3cc4c(c(C(=O)O)c3C1)CCC4)CCC2` (stereo not drawn), the TGI in the test on ACHN renal was more than 100 µM; with CCRF-CEM leukemia, 69.7 µM; with HOP-92 NSCLC, 81.2 µM; in the test on MALME-3M melanoma, more than 100 µM; with NCI-H460 lung it was more than 100 µM; in the test on OVCAR-3 ovarian, 47.2 µM. Moreover, the TGI with OVCAR-4 ovarian and in the test with SK-MEL-28 melanoma was more than 100 µM throughout.
As for `COc1ccc2c(c1)c1c3n2CCNN=C3CCC1`, the TGI in the test with ACHN renal, in the test on CCRF-CEM leukemia, in the test on HOP-92 NSCLC, in the test with MALME-3M melanoma, in the test with NCI-H460 lung and in the test on OVCAR-3 ovarian was more than 100 µM each time. Further, the TGI in the test with OVCAR-4 ovarian and in the test with SK-MEL-28 melanoma was more than 100 µM in each case.
On to `O=CCCCC(Sc1ccccc1)Sc1ccccc1`, for which the TGI came out at 38.4 µM in the test with ACHN renal; 44.6 µM with CCRF-CEM leukemia; 68 µM with OVCAR-3 ovarian; 45.6 µM in the test on OVCAR-4 ovarian; 32 µM in the test with SK-MEL-28 melanoma.
For the molecule `O=c1c2ccccc2nc(-c2ccccc2)n1NC(=S)Nc1cccc(Cl)c1`, the TGI with ACHN renal was more than 100 µM; in the test on CCRF-CEM leukemia, more than 100 µM; in the test with HOP-92 NSCLC, 94.5 µM; in the test with MALME-3M melanoma, more than 100 µM; with NCI-H460 lung it was more than 100 µM; in the test with OVCAR-4 ovarian, more than 100 µM. This molecule also showed a TGI in the test on SK-MEL-28 melanoma of more than 100 µM.
Turning to `O=C1C=Cc2ncccc2C1=O`, the TGI in the test on ACHN renal was 50.6 µM; in the test on CCRF-CEM leukemia, 15.2 µM; in the test with HOP-92 NSCLC, 42.5 µM; with MALME-3M melanoma, more than 57.2 µM; with NCI-H460 lung, 38.2 µM; in the test with OVCAR-3 ovarian it was 46.9 µM. For the same molecule, the TGI turned out to be 17.2 µM in the test on OVCAR-4 ovarian and 48.1 µM in the test with SK-MEL-28 melanoma.
On to `CC(=O)Nc1ccc(-c2nnc(SCC(=O)Nc3ccc(Cl)cc3)o2)cc1`, for which the TGI in the test with ACHN renal turned out to be 28.5 µM; with CCRF-CEM leukemia, 82.9 µM; with MALME-3M melanoma, 29.4 µM; in the test on NCI-H460 lung it was 36.8 µM; with OVCAR-3 ovarian, 31.1 µM; in the test with OVCAR-4 ovarian it was 55.9 µM. In the test with SK-MEL-28 melanoma, the TGI stood at 27.2 µM.
Consider `CC(=O)OC(=O)O/C=C\CCl`, for which the TGI in the test with ACHN renal, in the test on CCRF-CEM leukemia, in the test on MALME-3M melanoma, in the test on NCI-H460 lung, in the test with OVCAR-3 ovarian and in the test with OVCAR-4 ovarian was more than 100 µM in each case. The TGI with SK-MEL-28 melanoma was more than 100 µM.
As for `CCOC(=O)CC(NC(=O)c1ccc(N=NN(C)C)cc1)C(=O)OCC` (stereo not drawn), the TGI in the test on ACHN renal, in the test with CCRF-CEM leukemia, in the test with MALME-3M melanoma, in the test on NCI-H460 lung, with OVCAR-3 ovarian and in the test on OVCAR-4 ovarian was more than 100 µM in each case. The molecule further gave a TGI with SK-MEL-28 melanoma of more than 100 µM.
As to `O=S1(=O)c2ccccc2N=C(c2ccccc2Cl)CC1c1ccc(F)cc1` (stereo not drawn), the TGI with ACHN renal came out at 32.6 µM; with CCRF-CEM leukemia it was 50.5 µM; in the test on HOP-92 NSCLC, 34.6 µM; with MALME-3M melanoma, 36.8 µM; with NCI-H460 lung, 34.6 µM; in the test with OVCAR-3 ovarian it was 27.4 µM. Moreover, the TGI is 32.8 µM in the test with OVCAR-4 ovarian and 32.7 µM in the test on SK-MEL-28 melanoma.
`Cn1nc(-c2ccccc2)c(C(=O)/C=C/c2ccc(Cl)cc2)c(N2CCCC2)c1=O`: the TGI in the test with ACHN renal came to 3.34 µM; in the test with CCRF-CEM leukemia, 6.7 µM; in the test with HOP-92 NSCLC, 6.94 µM; in the test with NCI-H460 lung it was 12.9 µM; in the test on SK-MEL-28 melanoma it was 13.8 µM.
For `CCc1cc(Cc2ccc(C)c(NC(=O)C(=O)C3C(=O)NC(=O)NC3=O)c2CC)cc(C)c1NC(=O)C(=O)C1C(=O)NC(=O)NC1=O`, the TGI in the test with ACHN renal, with CCRF-CEM leukemia, in the test with MALME-3M melanoma, in the test on NCI-H460 lung, in the test on OVCAR-3 ovarian and with OVCAR-4 ovarian was more than 100 µM each time. The molecule further returned a TGI in the test with SK-MEL-28 melanoma of more than 100 µM.

Source of the values: PubChem BioAssay (NCI).
